Laboratory results taken from ChEMBL document CHEMBL5303573, “Mapping human microbiome drug metabolism by gut bacteria and their genes” (Nature, 2019).

Test system: not given
Settings: bacteroides stercoris, 12 h, 2 µM

Structure (SMILES)	Bacterial Biotransformation
CCOc1cc(CC(=O)N[C@@H](CC(C)C)c2ccccc2N2CCCCC2)ccc1C(=O)O [REPAGLINIDE]	Compound metabolized
CC(NC(C)(C)C)C(=O)c1cccc(Cl)c1 (stereo not drawn) [BUPROPION]	Compound NOT metabolized
CC(=O)OCC(=O)NCCCOc1cccc(CN2CCCCC2)c1 [ROXATIDINE ACETATE]	Compound metabolized
CN1CCN(C2=Nc3cc(Cl)ccc3Nc3ccccc32)CC1 [CLOZAPINE]	Compound NOT metabolized
CCS(=O)(=O)CCn1c([N+](=O)[O-])cnc1C [TINIDAZOLE]	Compound metabolized

Test system: not given
Settings: bacteroides fragilis, 12 h, 2 µM

Structure (SMILES)	Bacterial Biotransformation
CC(NC(C)(C)C)C(=O)c1cccc(Cl)c1 (stereo not drawn) [BUPROPION]	Compound NOT metabolized
CC(=O)OCC(=O)NCCCOc1cccc(CN2CCCCC2)c1 [ROXATIDINE ACETATE]	Compound metabolized
CN1CCN(C2=Nc3cc(Cl)ccc3Nc3ccccc32)CC1 [CLOZAPINE]	Compound NOT metabolized
CCS(=O)(=O)CCn1c([N+](=O)[O-])cnc1C [TINIDAZOLE]	Compound metabolized

Biological target: T1, Diguanylate cyclase (Collinsella aerofaciens, UniProt A4EB91)
T1 sequence (A4EB91 whole entry): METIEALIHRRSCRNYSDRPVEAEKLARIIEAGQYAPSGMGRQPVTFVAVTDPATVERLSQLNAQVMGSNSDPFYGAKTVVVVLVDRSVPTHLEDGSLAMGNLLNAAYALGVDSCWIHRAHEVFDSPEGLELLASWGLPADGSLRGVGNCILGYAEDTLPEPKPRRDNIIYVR
Assay: (§1) The drug is tested on Collinsella aerofaciens strain: ATCC25986 for biotransformation. The drug concentrations were measured before and after a 12-h incubation by liquid-chromatography-coupled mass spectrometry (LC–MS)
Format: ADME
Design: dose 2 uM
Settings: 2 µM

Structure (SMILES)	Bacterial Biotransformation
CC(=O)OCC(=O)NCCCOc1cccc(CN2CCCCC2)c1 [ROXATIDINE ACETATE]	Compound NOT metabolized

Biological target: T2, GDSL-like protein (Collinsella aerofaciens, UniProt A4E7D0)
T2 sequence (A4E7D0 whole entry): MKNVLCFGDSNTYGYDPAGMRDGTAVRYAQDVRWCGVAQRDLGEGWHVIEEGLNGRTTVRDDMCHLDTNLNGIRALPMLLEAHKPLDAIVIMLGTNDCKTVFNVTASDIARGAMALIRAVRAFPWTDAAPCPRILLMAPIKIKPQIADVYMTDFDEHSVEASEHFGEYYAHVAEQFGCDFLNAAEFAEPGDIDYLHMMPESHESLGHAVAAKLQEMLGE
Assay: as §1
Format: ADME
Design: dose 2 uM
Settings: 2 µM

Structure (SMILES)	Bacterial Biotransformation
CC(=O)OCC(=O)NCCCOc1cccc(CN2CCCCC2)c1 [ROXATIDINE ACETATE]	Compound NOT metabolized
CCS(=O)(=O)CCn1c([N+](=O)[O-])cnc1C [TINIDAZOLE]	Compound NOT metabolized

Biological target: T3, Pyridine nucleotide-disulfide oxidoreductase (Collinsella aerofaciens, UniProt A4EBM5)
T3 sequence (A4EBM5 whole entry): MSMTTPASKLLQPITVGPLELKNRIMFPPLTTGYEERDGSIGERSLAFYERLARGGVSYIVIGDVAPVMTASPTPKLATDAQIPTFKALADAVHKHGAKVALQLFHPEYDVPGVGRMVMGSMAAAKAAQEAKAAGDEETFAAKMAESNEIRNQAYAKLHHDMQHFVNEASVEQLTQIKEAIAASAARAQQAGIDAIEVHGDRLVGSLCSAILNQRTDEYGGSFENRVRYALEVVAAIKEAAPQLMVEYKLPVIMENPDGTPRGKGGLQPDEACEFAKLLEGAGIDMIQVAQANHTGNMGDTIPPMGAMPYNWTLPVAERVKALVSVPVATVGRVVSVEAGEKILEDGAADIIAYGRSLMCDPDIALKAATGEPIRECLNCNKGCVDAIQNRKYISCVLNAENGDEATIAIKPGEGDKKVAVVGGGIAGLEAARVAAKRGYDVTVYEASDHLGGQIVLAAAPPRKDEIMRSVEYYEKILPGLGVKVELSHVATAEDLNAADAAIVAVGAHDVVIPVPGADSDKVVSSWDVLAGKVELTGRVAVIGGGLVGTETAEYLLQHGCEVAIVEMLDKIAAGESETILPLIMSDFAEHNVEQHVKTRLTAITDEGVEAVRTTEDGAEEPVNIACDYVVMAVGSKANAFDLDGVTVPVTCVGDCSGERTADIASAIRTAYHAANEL
Assay: as §1
Format: ADME
Design: dose 2 uM
Settings: 2 µM

Structure (SMILES)	Bacterial Biotransformation
CC(=O)OCC(=O)NCCCOc1cccc(CN2CCCCC2)c1 [ROXATIDINE ACETATE]	Compound NOT metabolized
CCS(=O)(=O)CCn1c([N+](=O)[O-])cnc1C [TINIDAZOLE]	Compound metabolized

Biological target: T4, Flavodoxin (Collinsella aerofaciens, UniProt A4ED08)
T4 sequence (A4ED08 whole entry): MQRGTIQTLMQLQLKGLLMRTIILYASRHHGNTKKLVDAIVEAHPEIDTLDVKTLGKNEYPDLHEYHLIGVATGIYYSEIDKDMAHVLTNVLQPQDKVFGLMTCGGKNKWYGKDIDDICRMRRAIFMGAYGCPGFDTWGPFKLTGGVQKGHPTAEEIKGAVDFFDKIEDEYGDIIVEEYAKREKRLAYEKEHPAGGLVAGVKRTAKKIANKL
Assay: as §1
Format: ADME
Design: dose 2 uM
Settings: 2 µM

Structure (SMILES)	Bacterial Biotransformation
CC(=O)OCC(=O)NCCCOc1cccc(CN2CCCCC2)c1 [ROXATIDINE ACETATE]	Compound NOT metabolized
CCS(=O)(=O)CCn1c([N+](=O)[O-])cnc1C [TINIDAZOLE]	Compound NOT metabolized

Test system: not listed separately
Assay: The drug is tested on Bifidobacterium ruminantium strain: fecal isolate for biotransformation. The drug concentrations were measured before and after a 12-h incubation by liquid-chromatography-coupled mass spectrometry (LC–MS)
Settings: 2 µM

Structure (SMILES)	Bacterial Biotransformation
CCOc1cc(CC(=O)N[C@@H](CC(C)C)c2ccccc2N2CCCCC2)ccc1C(=O)O [REPAGLINIDE]	Compound NOT metabolized
CC(NC(C)(C)C)C(=O)c1cccc(Cl)c1 (stereo not drawn) [BUPROPION]	Compound metabolized
CC(=O)OCC(=O)NCCCOc1cccc(CN2CCCCC2)c1 [ROXATIDINE ACETATE]	Compound metabolized
CN1CCN(C2=Nc3cc(Cl)ccc3Nc3ccccc32)CC1 [CLOZAPINE]	Compound NOT metabolized
CCS(=O)(=O)CCn1c([N+](=O)[O-])cnc1C [TINIDAZOLE]	Compound metabolized

Test system: not listed separately
Assay: The drug is tested on Clostridium spiroforme strain: DSM1552 for biotransformation. The drug concentrations were measured before and after a 12-h incubation by liquid-chromatography-coupled mass spectrometry (LC–MS)
Settings: thomasclavelia spiroformis, 2 µM

Structure (SMILES)	Bacterial Biotransformation
CCOc1cc(CC(=O)N[C@@H](CC(C)C)c2ccccc2N2CCCCC2)ccc1C(=O)O [REPAGLINIDE]	Compound NOT metabolized
CC(NC(C)(C)C)C(=O)c1cccc(Cl)c1 (stereo not drawn) [BUPROPION]	Compound NOT metabolized
CN1CCN(C2=Nc3cc(Cl)ccc3Nc3ccccc32)CC1 [CLOZAPINE]	Compound NOT metabolized

Biological target: T5, 3-oxo-5-alpha-steroid 4-dehydrogenase (Bacteroides thetaiotaomicron, UniProt Q8A618)
T5 sequence (Q8A618 whole entry): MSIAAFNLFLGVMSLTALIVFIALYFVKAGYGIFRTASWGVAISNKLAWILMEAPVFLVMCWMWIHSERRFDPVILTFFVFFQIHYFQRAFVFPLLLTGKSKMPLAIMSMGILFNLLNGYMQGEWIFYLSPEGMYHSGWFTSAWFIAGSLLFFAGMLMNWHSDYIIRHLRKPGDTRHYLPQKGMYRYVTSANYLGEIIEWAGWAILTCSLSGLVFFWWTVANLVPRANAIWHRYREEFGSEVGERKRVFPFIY
Assay: (§2) The drug is tested on Bacteroides thetaiotaomicron strain: VPI-5482 for biotransformation. The drug concentrations were measured before and after a 12-h incubation by liquid-chromatography-coupled mass spectrometry (LC–MS)
Format: ADME
Design: dose 2 uM
Settings: 2 µM

Structure (SMILES)	Bacterial Biotransformation
CC(=O)OCC(=O)NCCCOc1cccc(CN2CCCCC2)c1 [ROXATIDINE ACETATE]	Compound NOT metabolized
CCS(=O)(=O)CCn1c([N+](=O)[O-])cnc1C [TINIDAZOLE]	Compound NOT metabolized

Biological target: T6, Acetyl esterase (Acetylxylosidase) (Bacteroides thetaiotaomicron, UniProt Q8ABF8)
T6 sequence (Q8ABF8 whole entry): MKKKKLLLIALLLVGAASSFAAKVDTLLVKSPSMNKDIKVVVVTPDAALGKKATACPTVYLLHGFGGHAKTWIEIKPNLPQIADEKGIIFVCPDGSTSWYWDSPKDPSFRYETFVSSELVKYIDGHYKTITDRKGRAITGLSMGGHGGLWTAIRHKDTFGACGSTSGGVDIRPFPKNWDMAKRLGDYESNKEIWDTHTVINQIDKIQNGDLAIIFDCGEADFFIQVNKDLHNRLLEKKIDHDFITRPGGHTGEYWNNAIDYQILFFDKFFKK
Assay: as §2
Format: ADME
Design: dose 2 uM
Settings: 2 µM

Structure (SMILES)	Bacterial Biotransformation
CC(=O)OCC(=O)NCCCOc1cccc(CN2CCCCC2)c1 [ROXATIDINE ACETATE]	Compound metabolized
CCS(=O)(=O)CCn1c([N+](=O)[O-])cnc1C [TINIDAZOLE]	Compound NOT metabolized

Test system: not listed separately
Assay: The drug is tested on Clostridium symbiosum strain: ATCC14940 for biotransformation. The drug concentrations were measured before and after a 12-h incubation by liquid-chromatography-coupled mass spectrometry (LC–MS)
Settings: 2 µM

Structure (SMILES)	Bacterial Biotransformation
CCOc1cc(CC(=O)N[C@@H](CC(C)C)c2ccccc2N2CCCCC2)ccc1C(=O)O [REPAGLINIDE]	Compound metabolized
CC(=O)OCC(=O)NCCCOc1cccc(CN2CCCCC2)c1 [ROXATIDINE ACETATE]	Compound NOT metabolized
CN1CCN(C2=Nc3cc(Cl)ccc3Nc3ccccc32)CC1 [CLOZAPINE]	Compound NOT metabolized
CCS(=O)(=O)CCn1c([N+](=O)[O-])cnc1C [TINIDAZOLE]	Compound metabolized

Test system: not listed separately
Assay: The drug is tested on Clostridium sp. strain: fecal isolate for biotransformation. The drug concentrations were measured before and after a 12-h incubation by liquid-chromatography-coupled mass spectrometry (LC–MS)
Settings: 2 µM

Structure (SMILES)	Bacterial Biotransformation
CCOc1cc(CC(=O)N[C@@H](CC(C)C)c2ccccc2N2CCCCC2)ccc1C(=O)O [REPAGLINIDE]	Compound NOT metabolized
CC(NC(C)(C)C)C(=O)c1cccc(Cl)c1 (stereo not drawn) [BUPROPION]	Compound NOT metabolized
CN1CCN(C2=Nc3cc(Cl)ccc3Nc3ccccc32)CC1 [CLOZAPINE]	Compound NOT metabolized
CCS(=O)(=O)CCn1c([N+](=O)[O-])cnc1C [TINIDAZOLE]	Compound metabolized

Test system: not listed separately
Assay: The drug is tested on Eggerthella lenta strain: ATCC25559 for biotransformation. The drug concentrations were measured before and after a 12-h incubation by liquid-chromatography-coupled mass spectrometry (LC–MS)
Settings: 2 µM

Structure (SMILES)	Bacterial Biotransformation
CCOc1cc(CC(=O)N[C@@H](CC(C)C)c2ccccc2N2CCCCC2)ccc1C(=O)O [REPAGLINIDE]	Compound NOT metabolized
CC(NC(C)(C)C)C(=O)c1cccc(Cl)c1 (stereo not drawn) [BUPROPION]	Compound NOT metabolized
CC(=O)OCC(=O)NCCCOc1cccc(CN2CCCCC2)c1 [ROXATIDINE ACETATE]	Compound metabolized
CCS(=O)(=O)CCn1c([N+](=O)[O-])cnc1C [TINIDAZOLE]	Compound metabolized

Test system: not given
Settings: enterocloster bolteae, 12 h, 2 µM

Structure (SMILES)	Bacterial Biotransformation
CCOc1cc(CC(=O)N[C@@H](CC(C)C)c2ccccc2N2CCCCC2)ccc1C(=O)O [REPAGLINIDE]	Compound metabolized
CC(NC(C)(C)C)C(=O)c1cccc(Cl)c1 (stereo not drawn) [BUPROPION]	Compound NOT metabolized
CC(=O)OCC(=O)NCCCOc1cccc(CN2CCCCC2)c1 [ROXATIDINE ACETATE]	Compound metabolized
CN1CCN(C2=Nc3cc(Cl)ccc3Nc3ccccc32)CC1 [CLOZAPINE]	Compound NOT metabolized
CCS(=O)(=O)CCn1c([N+](=O)[O-])cnc1C [TINIDAZOLE]	Compound metabolized

Test system: not listed separately
Assay: The drug is tested on Clostridium hathewayi strain: DSM13479 for biotransformation. The drug concentrations were measured before and after a 12-h incubation by liquid-chromatography-coupled mass spectrometry (LC–MS)
Settings: hungatella hathewayi, 2 µM

Structure (SMILES)	Bacterial Biotransformation
CCOc1cc(CC(=O)N[C@@H](CC(C)C)c2ccccc2N2CCCCC2)ccc1C(=O)O [REPAGLINIDE]	Compound NOT metabolized
CC(NC(C)(C)C)C(=O)c1cccc(Cl)c1 (stereo not drawn) [BUPROPION]	Compound NOT metabolized
CN1CCN(C2=Nc3cc(Cl)ccc3Nc3ccccc32)CC1 [CLOZAPINE]	Compound NOT metabolized
